# Test results as given in PubChem BioAssay AID2060625 (Molecular Pharmacology Branch, DTP, NCI, 2025).
# System: 186277-243-T-J2-PDC spheroids with HUVEC/MSC, viability
# Test: Anticancer human tumor 186277-243-T-J2-PDC patient-derived colon adenocarcinoma cell line growth inhibition [CLK]
# Conditions: for IC50: curve of first compound; for viability, T/C: stronger effect = lower value
# Procedure, shortened: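 Multi-cell-type spheroids combined patient-derived tumor cells with HUVEC endothelial cells and human mesenchymal stem cells. Paired agents were dosed in half-log steps down from about clinical Cmax, or from 10 microM where Cmax was unknown.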
# 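Note: compound exposure lasted seven days before readout.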
# 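Throughout, for viability, T/C: 100% = DMSO vehicle control wells.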
structure (smiles),measurement,setting,value
COC1C=CCC(C)C(C)S(=O)(=O)NC(=O)c2ccc3c(c2)N(CC2CCC21)CC1(CCCc2cc(Cl)ccc21)CO3 (configuration not stated) + CNC(=O)c1ccc(Nc2nc(OC3CCCC3)c3c(-c4ccc5nc(C)oc5c4)c[nH]c3n2)c(OC)c1,IC50,second compound 0.0316 µM,3550 nM
same,IC50,second compound 0.1 µM,90.1 nM
same,IC50,second compound 0.316 µM,< 31.6 nM
same,IC50,second compound 1 µM,< 31.6 nM
same,IC50,second compound 3.16 µM,< 31.6 nM
same,IC50,second compound 10 µM,< 31.6 nM
same,"viability, T/C","second compound 0.0316 µM, first compound 0.0316 µM",101%
same,"viability, T/C","second compound 0.0316 µM, first compound 0.1 µM",101%
same,"viability, T/C","second compound 0.0316 µM, first compound 0.316 µM",103%
same,"viability, T/C","second compound 0.0316 µM, first compound 1 µM",83%
same,"viability, T/C","second compound 0.0316 µM, first compound 3.16 µM",55.9%
same,"viability, T/C","second compound 0.0316 µM, first compound 10 µM",4.26%
same,"viability, T/C","second compound 0.1 µM, first compound 0.0316 µM",64%
same,"viability, T/C","second compound 0.1 µM, first compound 0.1 µM",50.2%
same,"viability, T/C","second compound 0.1 µM, first compound 0.316 µM",29.8%
same,"viability, T/C","second compound 0.1 µM, first compound 1 µM",19.8%
same,"viability, T/C","second compound 0.1 µM, first compound 3.16 µM",9.64%
same,"viability, T/C","second compound 0.1 µM, first compound 10 µM",3.08%
same,"viability, T/C","second compound 0.316 µM, first compound 0.0316 µM",39.9%
same,"viability, T/C","second compound 0.316 µM, first compound 0.1 µM",32%
same,"viability, T/C","second compound 0.316 µM, first compound 0.316 µM",19.9%
same,"viability, T/C","second compound 0.316 µM, first compound 1 µM",12.5%
same,"viability, T/C","second compound 0.316 µM, first compound 3.16 µM",6.42%
same,"viability, T/C","second compound 0.316 µM, first compound 10 µM",2.78%
same,"viability, T/C","second compound 1 µM, first compound 0.0316 µM",30.1%
same,"viability, T/C","second compound 1 µM, first compound 0.1 µM",23.2%
same,"viability, T/C","second compound 1 µM, first compound 0.316 µM",14.7%
same,"viability, T/C","second compound 1 µM, first compound 1 µM",10.7%
same,"viability, T/C","second compound 1 µM, first compound 3.16 µM",5.35%
same,"viability, T/C","second compound 1 µM, first compound 10 µM",4.55%
same,"viability, T/C","second compound 3.16 µM, first compound 0.0316 µM",31.5%
same,"viability, T/C","second compound 3.16 µM, first compound 0.1 µM",27%
same,"viability, T/C","second compound 3.16 µM, first compound 0.316 µM",17.6%
same,"viability, T/C","second compound 3.16 µM, first compound 1 µM",10.1%
same,"viability, T/C","second compound 3.16 µM, first compound 3.16 µM",6.79%
same,"viability, T/C","second compound 3.16 µM, first compound 10 µM",2.91%
same,"viability, T/C","second compound 10 µM, first compound 0.0316 µM",36.1%
same,"viability, T/C","second compound 10 µM, first compound 0.1 µM",25.4%
same,"viability, T/C","second compound 10 µM, first compound 0.316 µM",20.5%
same,"viability, T/C","second compound 10 µM, first compound 1 µM",11.9%
same,"viability, T/C","second compound 10 µM, first compound 3.16 µM",5.93%
same,"viability, T/C","second compound 10 µM, first compound 10 µM",2.8%
